Data: patent US11414424B2, “Cardiac sarcomere inhibitors” (Cytokinetics, Inc., priority 2018, dated 2022)

Tested on: bovine cardiac myofibrils
Assay: Myofibril assay: PK/LDH-coupled steady-state ATPase activity of skinned bovine cardiac myofibrils
Format: biochemical
Settings: Ca2+ activating to 75% of maximal rate
Summary of the method: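 Steady-state ATPase of detergent-skinned bovine left-ventricular myofibrils (1 mg/mL), PK/LDH-coupled NADH read at 340 nm, in PIPES/MgCl2 buffer pH 6.8 with 50 μM ATP, 0.6 mM EGTA and CaCl2 set for 50% or 75% activation. Inhibition of activity measured.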

CDMF75 IC15 [nM]	Compound
700	CC(=O)N1CCC2(C1)C(=O)N(c1ccc(C#N)cc1F)CC(=O)N2Cc1ccc(Cl)cc1 (stereo not drawn) [Compound 205, 4-(2-acetyl-6-(4-chlorobenzyl)-7,10-dioxo-2,6,9-triazaspiro[4.5]decan-9-yl)-3-fluorobenzonitrile]
500	CC(=O)N1CC[C@]2(C1)C(=O)N(c1ccc(C#N)cc1F)CC(=O)N2Cc1ccc(C(F)(F)F)cc1 [Compound 209, (S)-4-(2-acetyl-7,10-dioxo-6-(4-(trifluoromethyl)-benzyl)-2,6,9-triazaspiro-[4.5]decan-9-yl)-3-fluorobenzonitrile]
400	COC(=O)N1CC[C@]2(C1)C(=O)N(c1ccc(C#N)cc1F)CC(=O)N2Cc1ccc(Cl)cc1 [Compound 211, methyl (S)-6-(4-chlorobenzyl)-9-(4-cyano-2-fluorophenyl)-7,10-dioxo-2,6,9-triazaspiro-[4.5]decane-2-carboxylate]
500	CCC(=O)N1CC[C@]2(C1)C(=O)N(c1ccc(C#N)cc1F)CC(=O)N2Cc1ccc(Cl)cc1 [Compound 214, (S)-4-(6-(4-chlorobenzyl)-7,10-dioxo-2-propionyl-2,6,9-triazaspiro[4.5]decan-9-yl)-3-fluorobenzonitrile]
1300	N#Cc1ccc(N2CC(=O)N(Cc3ccc(C(F)(F)F)cc3)[C@]3(CCN(C(=O)C4COC4)C3)C2=O)c(F)c1 [Compound 215, (S)-3-fluoro-4-(2-(oxetane-3-carbonyl)-7,10-dioxo-6-(4-(trifluoromethyl)benzyl)-2,6,9-triazaspiro[4.5]decan-9-yl)benzonitrile]
300	COC(=O)N1CC[C@]2(C1)C(=O)N(c1ccc(C#N)cc1F)CC(=O)N2Cc1ccc(C(F)(F)F)cc1 [Compound 216, methyl (S)-9-(4-cyano-2-fluorophenyl)-7,10-dioxo-6-(4-(trifluoromethyl)benzyl)-2,6,9-triazaspiro[4.5]decane-2-carboxylate]
900	N#Cc1ccc(N2CC(=O)N(Cc3ccc(C(F)(F)F)cc3)[C@]3(CCN(C(=O)C4CCC4)C3)C2=O)c(F)c1 [Compound 217, (S)-4-(2-(cyclobutane-carbonyl)-7,10-dioxo-6-(4-(trifluoromethyl)benzyl)-2,6,9-triazaspiro[4.5]decan-9-yl)-3-fluorobenzonitrile]
400	CCC(=O)N1CC[C@]2(C1)C(=O)N(c1ccc(C#N)cc1F)CC(=O)N2Cc1ccc(C(F)(F)F)cc1 [Compound 218, (S)-4-(7,10-dioxo-2-propionyl-6-(4-(trifluoromethyl)benzyl)-2,6,9-triazaspiro[4.5]decan-9-yl)-3-fluorobenzonitrile]
400	N#Cc1ccc(N2CC(=O)N(Cc3ccc(C(F)(F)F)cc3)[C@]3(CCN(C(=O)C4CC4)C3)C2=O)c(F)c1 [Compound 219, (S)-4-(2-(cyclopropane-carbonyl)-7,10-dioxo-6-(4-(trifluoromethyl)benzyl)-2,6,9-triazaspiro[4.5]decan-9-yl)-3-fluorobenzonitrile]
800	N#Cc1ccc(N2CC(=O)N(Cc3ccc(Cl)cc3)[C@]3(CCN(C=O)C3)C2=O)c(F)c1 [Compound 220, (S)-4-(6-(4-chlorobenzyl)-2-formyl-7,10-dioxo-2,6,9-triazaspiro[4.5]decan-9-yl)-3-fluorobenzonitrile]
4100	CC(C)C(=O)N1CC[C@]2(C1)C(=O)N(c1ccc(C#N)cc1F)CC(=O)N2Cc1ccc(Cl)cc1 [Compound 221, (S)-4-(6-(4-chlorobenzyl)-2-isobutyryl-7,10-dioxo-2,6,9-triazaspiro[4.5]decan-9-yl)-3-fluorobenzonitrile]
2300	CC(C)C(=O)N1CC[C@]2(C1)C(=O)N(c1ccc(C#N)cc1F)CC(=O)N2Cc1ccc(C(F)(F)F)cc1 [Compound 223, (S)-3-fluoro-4-(2-isobutyryl-7,10-dioxo-6-(4-(trifluoromethyl)benzyl)-2,6,9-triazaspiro[4.5]decan-9-yl)benzonitrile]
